In ChEMBL document CHEMBL1909046, “DrugMatrix in vitro pharmacology data”:

Assays:
Cytochrome P450 2A6 = biological target: T1, Cytochrome P450 2A6 (Homo sapiens, UniProt P11509); details: bti-tn-5b1-4; note: in other assays of this panel Not Active means under 50% inhibition at 10 µM
T1 sequence (P11509 whole entry): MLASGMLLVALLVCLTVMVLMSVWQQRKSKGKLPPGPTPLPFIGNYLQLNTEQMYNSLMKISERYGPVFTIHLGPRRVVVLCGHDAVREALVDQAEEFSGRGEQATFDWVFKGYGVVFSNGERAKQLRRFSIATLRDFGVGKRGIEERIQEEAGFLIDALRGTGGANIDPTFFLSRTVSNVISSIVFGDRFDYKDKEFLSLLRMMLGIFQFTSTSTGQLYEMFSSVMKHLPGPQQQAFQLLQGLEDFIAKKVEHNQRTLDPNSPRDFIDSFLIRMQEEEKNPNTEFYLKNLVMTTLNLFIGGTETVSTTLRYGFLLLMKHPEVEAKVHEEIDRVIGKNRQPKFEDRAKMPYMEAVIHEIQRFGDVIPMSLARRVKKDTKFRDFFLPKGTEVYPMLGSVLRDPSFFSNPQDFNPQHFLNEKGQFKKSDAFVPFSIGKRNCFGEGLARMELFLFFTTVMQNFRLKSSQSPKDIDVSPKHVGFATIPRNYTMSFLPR

Glucocorticoid receptor = biological target: T2, Glucocorticoid receptor (Homo sapiens, UniProt P04150); details: hela s3; note: in other assays of this panel Not Active means under 50% inhibition at 10 µM
T2 sequence (P04150 whole entry): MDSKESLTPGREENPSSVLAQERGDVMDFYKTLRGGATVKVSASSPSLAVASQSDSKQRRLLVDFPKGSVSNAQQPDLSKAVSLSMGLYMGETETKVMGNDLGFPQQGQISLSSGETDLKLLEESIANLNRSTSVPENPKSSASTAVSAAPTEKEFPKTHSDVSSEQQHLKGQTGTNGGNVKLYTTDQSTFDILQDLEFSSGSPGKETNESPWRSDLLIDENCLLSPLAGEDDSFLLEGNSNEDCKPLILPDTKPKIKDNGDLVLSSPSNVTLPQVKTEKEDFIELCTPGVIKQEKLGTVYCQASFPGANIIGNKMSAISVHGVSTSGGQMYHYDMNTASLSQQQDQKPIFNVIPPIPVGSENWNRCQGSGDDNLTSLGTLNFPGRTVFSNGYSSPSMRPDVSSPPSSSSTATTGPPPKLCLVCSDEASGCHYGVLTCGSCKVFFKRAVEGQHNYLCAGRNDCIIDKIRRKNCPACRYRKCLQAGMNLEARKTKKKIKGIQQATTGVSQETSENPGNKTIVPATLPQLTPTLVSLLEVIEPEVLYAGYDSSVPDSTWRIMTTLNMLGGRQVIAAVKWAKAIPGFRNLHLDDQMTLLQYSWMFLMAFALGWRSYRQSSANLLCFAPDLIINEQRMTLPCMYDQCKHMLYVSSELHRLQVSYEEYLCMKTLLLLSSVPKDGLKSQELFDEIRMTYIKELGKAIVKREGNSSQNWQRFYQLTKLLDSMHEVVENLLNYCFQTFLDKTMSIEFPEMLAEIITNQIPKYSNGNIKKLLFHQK

[1] = DRUGMATRIX: Nicotinic Acetylcholine radioligand binding (ligand: [125I] Epibatidine); assay type: cell membranes, Membrane; details: imr-32; Not Active = under 50% inhibition at 10 µM
B2 bradykinin receptor = biological target: T3, B2 bradykinin receptor (Homo sapiens, UniProt P30411); assay type: cell membranes, Membrane; details: chem-1; note: in other assays of this panel Not Active means under 50% inhibition at 10 µM
T3 sequence (P30411 whole entry): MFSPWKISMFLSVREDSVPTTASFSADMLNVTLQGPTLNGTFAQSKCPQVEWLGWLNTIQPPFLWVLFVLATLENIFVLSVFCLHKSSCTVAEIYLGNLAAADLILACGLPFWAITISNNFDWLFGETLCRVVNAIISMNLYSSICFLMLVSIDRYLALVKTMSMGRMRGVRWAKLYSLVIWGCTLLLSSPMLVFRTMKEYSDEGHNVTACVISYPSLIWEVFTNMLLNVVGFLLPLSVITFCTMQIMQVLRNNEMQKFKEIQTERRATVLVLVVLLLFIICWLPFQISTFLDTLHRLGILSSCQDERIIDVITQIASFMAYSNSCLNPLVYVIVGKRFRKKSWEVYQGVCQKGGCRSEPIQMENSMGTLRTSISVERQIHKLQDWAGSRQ

[2] = DRUGMATRIX: Calcium Channel Type L, Dihydropyridine radioligand binding (ligand: [3H] Nitrendipine); assay type: cell membranes, Rattus norvegicus, Wistar, Cerebral cortex, Membrane; details: Not Active = under 50% inhibition at 10 µM
[3] = biological target: Protein kinase C alpha type (Homo sapiens, UniProt P17252); assay type: cell-based; details: sf9;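 note: inhibition of PKCalpha kinase activity measured in an enzyme assay with histone as the phosphorylation substrate; in other assays of this panel Not Active means under 50% inhibition at 10 µM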
[4] = biological target: 5-hydroxytryptamine receptor 1B (Rattus norvegicus, UniProt P28564); assay type: cell membranes, Wistar, Cerebral cortex, Membrane; note: in other assays of this panel Not Active means under 50% inhibition at 10 µM
Sequence of 5-hydroxytryptamine receptor 1B (P28564 whole entry): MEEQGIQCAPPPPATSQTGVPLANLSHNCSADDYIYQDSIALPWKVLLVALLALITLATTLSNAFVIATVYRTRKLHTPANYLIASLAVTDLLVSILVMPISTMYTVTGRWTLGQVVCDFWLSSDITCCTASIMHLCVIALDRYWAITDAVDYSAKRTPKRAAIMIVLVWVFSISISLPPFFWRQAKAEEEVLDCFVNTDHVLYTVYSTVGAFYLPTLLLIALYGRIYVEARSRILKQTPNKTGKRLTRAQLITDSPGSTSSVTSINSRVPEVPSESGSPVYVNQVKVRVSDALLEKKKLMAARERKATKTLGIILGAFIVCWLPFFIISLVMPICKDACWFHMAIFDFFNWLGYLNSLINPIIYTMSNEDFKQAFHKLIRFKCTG

[5] = DRUGMATRIX: Sigma2 radioligand binding (ligand: [3H] Ifenprodil); assay type: cell membranes, Rattus norvegicus, Wistar, Brain, Membrane; details: Not Active = under 50% inhibition at 10 µM

NYSTATIN
Not Active: IC50 (Cytochrome P450 2A6) | Ki (Cytochrome P450 2A6) | IC50 (Glucocorticoid receptor) | Ki (Glucocorticoid receptor) | IC50 [1] | Ki [1] | IC50 (B2 bradykinin receptor) | Ki (B2 bradykinin receptor) | IC50 [2] | Ki [2] | IC50 [3] | Ki [3] | IC50 [4] | Ki [4] | IC50 [5] | Ki [5]
